# Earlier results in patent publication US7189798B2, “Composition containing mixture of dihydroxybutane sulfonates” (Eastman Chemical Company, priority 2001, dated 2007).
# Settings: in vivo
smiles,measurement,value
"OC[C@H]1O[C@@H]2O[C@H]3[C@H](O)[C@@H](O)[C@@H](O[C@H]4[C@H](O)[C@@H](O)[C@@H](O[C@H]5[C@H](O)[C@@H](O)[C@@H](O[C@H]6[C@H](O)[C@@H](O)[C@@H](O[C@H]7[C@H](O)[C@@H](O)[C@@H](O[C@H]8[C@H](O)[C@@H](O)[C@@H](O[C@H]1[C@H](O)[C@H]2O)O[C@@H]8CO)O[C@@H]7CO)O[C@@H]6CO)O[C@@H]5CO)O[C@@H]4CO)O[C@@H]3CO [β-CD, β-cyclodextrin]",Renal and liver damage after parenteral administration,cause renal and liver damage
